From patent US20220177459A1, “AROMATIC AMINE COMPOUND AND USE THEREOF IN PREPARATION OF AR AND BRD4 DUAL INHIBITORS AND REGULATORS” (HINOVA PHARMACEUTICALS INC., priority 2019, published 2022) come the findings set out here.

Structures are written as SMILES.

In assay [1] the test system is LNCaP/AR cells. Description: Inhibition of proliferation of prostate cancer cells LNCaP/AR (CCK-8). The class given is cell-based. Conditions: 144 h, 6 days culture, CCK-8, OD 450 nm, read-out: IC50 (μM), inhibitory activity on prostate cancer cell LNCap/AR. As for the experimental part: 1. Biological determination of the inhibitory effect on the proliferation of prostate cancer cells LNCaP/AR
Cell culture medium: RIPM1640 media, 10% FBS, 1% Pen Strep;
(§1) 1) LNCaP/AR cells were subcultured in cell culture medium, and the cells in good growth condition were seeded in a 96-well plate, with 80 μL per well (i.e. 1000 cells per well), and cultured overnight in a 37° C., 5% CO2 cell incubator.
2) The drug was prepared with dimethylsulfoxide (DMSO) as a 10 mM stock solution.
(§2) Immediately before use, the stock solution was diluted 3 times with DMSO, and then diluted as a 3-fold gradient to obtain 9 concentration gradients. Then, the compound of each concentration was diluted 200 times with the culture media (to ensure that the DMSO concentration in the culture system was 0.1%), and two multiple holes were set for each concentration. 20 μL of the diluted compound was added to the cell culture well (with a final concentration of 10 μM, 3.3 μM, 1.1 μM . . . ), and then shook gently to mix. In addition, three negative control wells with only cells and three blank control wells with only culture medium were included (6 wells being each added with DMSO diluted 200 times with 20 μL culture medium).
(§3) 1) After culturing for 6 days, 10 μL of CCK-8 was added to each well and continued culturing for 1 hour in a 37° C., 5% CO2 cell incubator.
(§4) 2) The absorbance (OD value) was measured at 450 nm using a multifunctional microplate reader.
(§5) 3) The data were analyzed by the Dose-response-inhibition equation in the software GraphPad Prism5, and the IC50 value was obtained.

For assay [2], the target named is T1, androgen receptor (AR) (Homo sapiens, UniProt P10275).
T1 construct: host or cells: HEK293
T1 sequence (P10275 1-920): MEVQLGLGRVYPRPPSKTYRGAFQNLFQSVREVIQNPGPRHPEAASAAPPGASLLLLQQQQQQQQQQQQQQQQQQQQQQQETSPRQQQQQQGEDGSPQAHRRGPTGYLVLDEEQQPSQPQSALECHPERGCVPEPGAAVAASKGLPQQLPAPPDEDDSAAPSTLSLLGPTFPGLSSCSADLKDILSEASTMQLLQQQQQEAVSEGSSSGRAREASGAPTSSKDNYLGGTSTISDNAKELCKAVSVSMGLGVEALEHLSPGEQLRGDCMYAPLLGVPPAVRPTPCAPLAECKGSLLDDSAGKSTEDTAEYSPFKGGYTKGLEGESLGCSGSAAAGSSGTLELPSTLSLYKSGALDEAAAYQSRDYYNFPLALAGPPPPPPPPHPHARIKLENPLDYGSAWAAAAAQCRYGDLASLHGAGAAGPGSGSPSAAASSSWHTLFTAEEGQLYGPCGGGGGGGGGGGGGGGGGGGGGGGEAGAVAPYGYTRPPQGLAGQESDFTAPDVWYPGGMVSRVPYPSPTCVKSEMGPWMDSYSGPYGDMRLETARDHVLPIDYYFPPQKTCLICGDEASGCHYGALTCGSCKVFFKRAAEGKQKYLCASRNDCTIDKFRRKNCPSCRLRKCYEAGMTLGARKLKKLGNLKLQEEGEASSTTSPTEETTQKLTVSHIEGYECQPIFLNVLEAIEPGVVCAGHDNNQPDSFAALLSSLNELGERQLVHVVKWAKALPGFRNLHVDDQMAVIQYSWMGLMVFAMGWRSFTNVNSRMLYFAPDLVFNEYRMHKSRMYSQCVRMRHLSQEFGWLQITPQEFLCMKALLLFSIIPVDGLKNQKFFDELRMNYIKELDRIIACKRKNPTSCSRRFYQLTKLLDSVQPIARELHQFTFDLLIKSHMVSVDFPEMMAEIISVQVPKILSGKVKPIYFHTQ
Description: Inhibitory activity on the function of androgen receptor (AR), luciferase reporter in transfected cells. The settings on record: transfected with AR and pGL4.36, testosterone 2 nM, Steady-Glo. The class given is cell-based. The procedure:
Experimental Example 2 the Inhibitory Activity of the Compound According to the Present Invention on the Function of Androgen Receptor (AR)
Androgen receptor clone (Origene, Cat. No. RC235415)
pGL4.36 vector (Promega, Cat. No. E1360)
1) The cell suspension was diluted with the culture medium for seeding cells to a concentration of 4.0×10^5 cells/ml, for plating and adding transfection reagents.
2) The diluted cell suspension was inoculated into a cell culture plate, with 100 μL per well, and the plate was placed in a cell incubator and cultured overnight.
3) The transfection reagent was prepared as 10 μL/well, and added into the cell culture plate after 15 min at room temperature, then the plate was placed in a cell incubator and cultured overnight.
4) The compound was diluted by a 3-fold gradient with TECAN sampler, to obtain 8 concentration gradients, and the final DMSO concentration was 0.25%. The diluted compound was cultured in a 37° C. incubator for 30 min.
5) 250 nL of testosterone at a final concentration of 2 nM was added to the control well with an […] sampler, placed in a cell incubator, and cultured overnight.
6) Steady-Glo was added at 100 μL/well to the cell culture plate, and then the plate was left at room temperature for 15 min, followed by reading on Envision.
The data were analyzed according to the formula % Effect=(Sample value−LC)/(HC−LC)*100, using XL-fit software (provided by Business Solutions Ltd., version number XL fit 5.0). The inhibition rate of each compound against androgen receptor (AR) was calculated, and the half-inhibitory concentration IC50 of each compound against androgen receptor (AR) was further calculated.

The test system of assay [3] is VCaP cells. Description: Inhibition of proliferation of other prostate cancer cells: VCaP. The class given is cell-based. Conditions: Homo sapiens, same method as LNCaP/AR. The procedure:
as §1, §2, §3, §4, §5
(§6) 2. Biological determination of the inhibitory effect on the proliferation of other prostate cancer cells
(§7) The inhibitory activity of the compound according to the present invention on other drug-resistant prostate cancer cells was measured by the same method as described above, in which VCaP and 22RV1 cells were commercially available.

Assay [4] concerns 22RV1 cells. As to the kind of experiment: Inhibition of proliferation of other prostate cancer cells: 22RV1. The class given is cell-based. The settings on record: Homo sapiens, same method as LNCaP/AR. The procedure:
as §1, §2, §3, §4, §5, §6, §7

The target of assay [5] is T2, BRD4 (D1+D2) protein (Homo sapiens, UniProt O60885).
T2 construct: purchased BPS 31044
As to the kind of experiment: HTRF binding to BRD4 (D1+D2) protein. The settings on record: BRD4(1,2), 2 h at room temperature, read-out: IC50 (μM), inhibitory activity on BRD4. An excerpt: Homogeneous time-resolved fluorescence technique (HTRF) was used to detect the binding effect of compound to BRD4 (D1+D2) protein.
Experimental materials: • BRD4(1,2) (BPS, Cat. No. 31044), • I-CBP 112 (MCE, Cat. No. HY-19541), • (+)-JQ1 (BPS, Cat. No. 27402).
Using homogeneous time-resolved fluorescence method, the detection steps are as follows:
1. According to the layout of the detection plate, the test compound was gradiently diluted on the Echo plate, and the final dilution concentration of DMSO was 0.1%.
2. The compound or DMSO was transferred to the 384-well detection plate with the Echo automatic sampler.
3. Two-fold concentration of protein and peptide mixture was added to the detection plate.
4. Two-fold concentration of the detection mixture was added to the detection plate, and shook for 30 s.
5. Incubating for 2 h at room temperature.
6. The fluorescence signal was read on the Envision multifunctional microplate reader (excitation wavelength at 340 nm; emission wavelength at 615 nm and 665 nm).
1. The experimental data were entered into an Excel file, and equation (1) was used to calculate the inhibition rate:
Inh %=(Max−Signal)/(Max−Min)*100 Equation (1)
2. The obtained data were input into GraphPad software, and equation (2) was used to calculate the IC50 value.
Y=Bottom+(Top−Bottom)/(1+10^((LogIC50−X)*Hill Slope)) Equation (2)
wherein, Y axis is the inhibition rate, while X axis is the compound concentration.
A general note: TR-FRET usually uses a lanthanide donor and a delayed reading to cut background.

Turning to `CCN(c1ccc(-n2ccnc2)c(Br)c1)c1cc(-c2c(C)noc2C)ccc1C` [Compound 31, N-(3-bromo-4-(1H-imidazol-1-yl)phenyl)-5-(3,5-dimethylisoxazol-4-yl)-N-ethyl-2-methylaniline], the IC50 in assay [1] came to 0.54 µM; in assay [2] it was 2.1 µM; in assay [3] it was 1.35 µM; in assay [4] it was 9.37 µM; in assay [5], 6.3 µM.
On to `CCN(c1ccc(-n2ccnn2)c(Br)c1)c1cc(-c2c(C)noc2C)ccc1C` [Compound 45], for which the IC50 worked out at 0.82 µM in assay [1]; 1.7 µM in assay [2]; 0.75 µM in assay [3]; 7.75 µM in assay [4]; 1.9 µM in assay [5].
With `CCN(c1ccc(-n2ccnc2C)cc1)c1cc(-c2c(C)noc2C)ccc1C` [Compound 27], the IC50 in assay [1] is 0.38 µM; in assay [2], 0.89 µM; in assay [3] it was 0.99 µM; in assay [4] it was 3.77 µM; in assay [5], 4.1 µM.
As to `CCN(c1ccc(F)c(-n2ccnc2)c1)c1cc(-c2c(C)noc2C)ccc1C` [Compound 83], the IC50 was 0.83 µM in assay [2], 1.27 µM in assay [3], 5.2 µM in assay [4] and 6.7 µM in assay [5].
